Series [1] can be described thus: Biodistribution and clearance of dye-loaded NPs after oral gavage. The class given is in vivo, mice. Conditions: pancreas.
Description: B6, NOD, or Nude mice were fasted for 4 h and treated with DIR- or coumarin 6-encapsulating NPs by oral gavage (50, 100, or 500 mg/kg, 250 μL). Free DIR or coumarin 6 (solubilized with 1% Tween 20) served as controls. […] Fluorescence data was fit to the one component exponential decay model: Y=Yf+(Yo−e^−kt).
Biodistribution in animals was conducted using fluorescent dye loaded pBA NPs. Animals were first fasted for 4 h prior to the experiment then orally gavaged with the NP formulations in saline followed by resumption of normal food and water. At 4 h post gavage, animals were euthanized, and organs were harvested to be fluorescently imaged. Quantitative fluorescence was conducted with a multispectral imaging platform (Bruker multispectral MS FX PRO imaging system).
Series [2] in a line: Loading of dye/agents in NPs. Type of series: physicochemical. The procedure:
Polymer Synthesis and Nanoparticle (NP) formulation. […] Chloroform was utilized as the mobile phase with a flow rate of 1 mL/min and both the columns and RI detector were maintained at 40° C. MW characteristics were determined relative to a calibration curve generated from narrow polydispersity polystyrene standards (Aldrich Chemical). […] Polymers or the mixture (100 mg) was dissolved in 2 mL chloroform containing DIR (1 mg), coumarin 6 (10 mg), RAPA (10 mg) or iron oxide (1 mg). Phosphate-buffered saline (PBS, 100 μL) or the PBS containing INS (10 μg) was added dropwise to the chloroform polymer solution while vortexing and homogenized using an IKA T25 Digital Ultra-Turrax (IKA). This dispersant phase was then added dropwise to a continuous phase of 5% PVA and homogenized. The mixture was then added dropwise to 200 mL of 0.2% PVA and left stirring for 2 h to evaporate the solvent. NPs were collected by centrifugation at 12,000 rpm for 20 min at 4° C. and then washed 3 times with deionized water. The particles were lyophilized and stored at −20° C. The hydrodynamic diameter and surface charge of NPs were measured by a Malvern Zetasizer. A dispersion of NPs was filtrated through a 0.45 μm Millipore filter into cuvettes prior to the measurements. […] The morphology of the NPs was observed by Hitachi S-4800 High Resolution scanning electron microscopy (SEM, Norcross). A dispersion of NPs in ethanol (2 μL) was placed on the wafer substrate and dried at room temperature. The sample was mounted on the aluminum sample holder and then gold sputtered. […] NPs were dispersed in the media (citrate buffer solution, pH 2.0) at 37° C. in the presence of pepsin (10 mg/mL). At each time point, NPs were centrifuged, and supernatant was collected to measure the amount of DIR released from the particles using a plate reader (λex 750 nm, λem 790 nm, SpectraMax M5, Molecular Devices). Insulin release was quantified by the BCA assay.

The test system of series [3] is mouse pancreatic β cell line (MIN6). The series is described as follows: Insulin production from pancreatic β cells (MIN6) by TGR5 activation. The class given is cell-based. Conditions: 40 μg/mL, 25 mM glucose, compared with PLGA particles. The procedure:
Concentration of insulin was measured using an Ultrasensitive Insulin ELISA kit (ALPCO). […] The pAkt production from CHO cells incubated with fresh or denatured insulin was compared to calculate percent bioactivity.
Concentration of insulin was measured using an Ultrasensitive Insulin ELISA kit (ALPCO).

The next series deals with rat microglia. Conditions: cited from earlier work.
The test system of series [4] is fibroblasts from patients with either sporadic or familial Alzheimer's disease. Particulars: cited from earlier work.
For series [5] the following is noted: cited from earlier work.

One may read the Log P as the decadic logarithm of the partition coefficient of the neutral form, usually between octanol and water.

Turning to `CCCCCCCCCCCCCCCCCCN1C(=CC=CC=CC=CC2=[N+](CCCCCCCCCCCCCCCCCC)c3ccccc3C2(C)C)C(C)(C)c2ccccc21.[I-]` [DIR, 1,1′-dioctadecyl-3,3,3′,3′-tetramethylindotricarbocyanine iodide], in series [1], the “ΔY (Final-Initial)” value is reported as 1.42 % Initial Dose/cm^3. Further, the “k (clearance rate)” value in series [1] (one phase decay fit) was about 0.01 h⁻¹. For the same molecule, the Loading of agent in series [2] was 6.7 μg per mg of particles.
In the case of insulin, in series [2], the Loading of agent is given as 0.02 μg per mg of particles and the “loading of INS in pUDCA NPs” value is “approximately 20 ng/mg of NP”.
Consider `CC(CCC(=O)O)C1CC[C@H]2[C@@H]3[C@@H](O)C[C@@H]4C[C@H](O)CC[C@]4(C)[C@H]3CC[C@]12C` (stereo partly shown) [UDCA, urso-deoxycholic acid], for which the “insulin secretion from pancreatic β cells” value in series [3] is “able to induce insulin secretion”. Besides, the “effect on IL-1β, nitric oxide, TNF-α” value in the series on rat microglia was “reduce IL-1β and nitric oxide, and downregulate TNF-α”. The “effect on mitochondrial function and Drp1” value in series [4] is “improve mitochondrial function and redistributes Drp1”.
On to `CCN(CC)c1ccc2cc(-c3nc4ccccc4s3)c(=O)oc2c1` [coumarin 6], for which, in series [5], the “Log P” value is on record as 1.8. In addition, the Loading of agent in series [2] is 84.3 μg per mg of particles.
